# What was measured:
# [1] = system: ragweed; assay: Test A preemergence; format: in vivo, Ambrosia artemisiifolia
# Procedure, shortened: (§1)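 Greenhouse pot test, 10 days. Compound (non-phytotoxic solvent, surfactant) sprayed on soil at seeding or on seedlings at one- to two-leaf stage. Visual injury rated 0–100 against untreated plants.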
# [2] = system: oat, wild; assay: Test A postemergence; format: in vivo, Avena fatua
# Procedure, shortened: as §1
# [3] = system: rice; assay: Test B flooded paddy test; format: in vivo, Oryza sativa; settings: 250 g ai/ha, Flood, 13 days, 0 to 100 scale (0 no effect, 100 complete control)
# Procedure, shortened: (§2)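 Compound is introduced into paddy water covering soil by 3 cm, treating plants that have reached two leaves. Pots are kept flooded at that depth under greenhouse conditions. Assessment at 13 days gives a 0–100 visual control score.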
# [4] = system: pigweed, palmer; assay: Test A postemergence; format: in vivo, Amaranthus palmeri
# Procedure, shortened: as §1
# [5] = system: goosegrass; assay: Test A preemergence; format: in vivo, Eleusine indica
# Procedure, shortened: as §1
# [6] = system: ragweed; assay: Test A postemergence; format: in vivo, Ambrosia artemisiifolia
# Procedure, shortened: as §1
# [7] = system: kochia; assay: Test A preemergence; format: in vivo, Bassia scoparia
# Procedure, shortened: as §1
# [8] = system: goosegrass; assay: Test A postemergence; format: in vivo, Eleusine indica
# Procedure, shortened: as §1
# [9] = system: ducksalad; assay: Test B flooded paddy test; format: in vivo, Heteranthera limosa; settings: 250 g ai/ha, Flood, 13 days, 0 to 100 scale (0 no effect, 100 complete control)
# Procedure, shortened: as §2
# [10] = system: ryegrass, Italian; assay: Test A postemergence; format: in vivo, Lolium multiflorum
# Procedure, shortened: as §1
# [11] = system: ryegrass, Italian; assay: Test A preemergence; format: in vivo, Lolium multiflorum
# Procedure, shortened: as §1
# [12] = system: horseweed; assay: Test A postemergence; format: in vivo, Erigeron canadensis
# Procedure, shortened: as §1
# [13] = system: kochia; assay: Test A postemergence; format: in vivo, Bassia scoparia
# Procedure, shortened: as §1
# [14] = system: pigweed, palmer; assay: Test A preemergence; format: in vivo, Amaranthus palmeri
# Procedure, shortened: as §1
# [15] = system: wheat; assay: Test A preemergence; format: in vivo, Triticum aestivum
# Procedure, shortened: as §1
# [16] = system: corn; assay: Test A postemergence; format: in vivo, Zea mays
# Procedure, shortened: as §1
# [17] = system: sedge, umbrella; assay: Test B flooded paddy test; format: in vivo, Cyperus difformis; settings: 250 g ai/ha, Flood, 13 days, 0 to 100 scale (0 no effect, 100 complete control)
# Procedure, shortened: as §2
# [18] = system: wheat; assay: Test A postemergence; format: in vivo, Triticum aestivum
# Procedure, shortened: as §1
# [19] = system: galium; assay: Test A postemergence; format: in vivo, Galium aparine
# Procedure, shortened: as §1
# [20] = system: blackgrass; assay: Test A postemergence; format: in vivo, Alopecurus myosuroides
# Procedure, shortened: as §1
# [21] = system: blackgrass; assay: Test A preemergence; format: in vivo, Alopecurus myosuroides
# Procedure, shortened: as §1
# [22] = system: corn; assay: Test A preemergence; format: in vivo, Zea mays
# Procedure, shortened: as §1
# [23] = system: soybean; assay: Test A preemergence; format: in vivo, Glycine max
# Procedure, shortened: as §1
# [24] = system: foxtail, giant; assay: Test A preemergence; format: in vivo, Setaria faberi
# Procedure, shortened: as §1
# [25] = system: barnyardgrass; assay: Test B flooded paddy test; format: in vivo, Echinochloa crus-galli; settings: 250 g ai/ha, Flood, 13 days, 0 to 100 scale (0 no effect, 100 complete control)
# Procedure, shortened: as §2
# [26] = system: soybean; assay: Test A postemergence; format: in vivo, Glycine max
# Procedure, shortened: as §1
# [27] = system: foxtail, giant; assay: Test A postemergence; format: in vivo, Setaria faberi
# Procedure, shortened: as §1
# [28] = system: oat, wild; assay: Test A preemergence; format: in vivo, Avena fatua
# Procedure, shortened: as §1
# [29] = 125 g ai/ha, visual injury after 10 days, 0 to 100 scale, 0 is no effect, 100 is complete control
# [30] = 500 g ai/ha, 0 to 100 scale (0 no effect, 100 complete control), 10 days
# [31] = 125 g ai/ha, postemergence, 10 days, visual injury, 0 to 100 scale (0 no effect, 100 complete control)
# [32] = 500 g ai/ha, Postemergence, 0 to 100 scale
# [33] = 125 g ai/ha, postemergence, 10 days, 0 to 100 scale, 0 no effect, 100 complete control
# [34] = 500 g ai/ha, postemergence, 10 days, visual injury, 0 to 100 scale (0 no effect, 100 complete control)
smiles,measurement,setting,value
Cc1c(C(=O)N2CC(C)Oc3c(Cl)cccc32)cccc1-n1cncn1 (centres unmarked) [Compound 40],"Plant response rating, Ragweed",[1]; [29],0
same,"Plant response rating, Ragweed",[1]; [30],0
same,"Plant response rating, Oat, Wild",[2]; [31],0
same,"Plant response rating, Oat, Wild",[2]; [32],0
same,"Plant response rating, Rice",[3],0
same,"Plant response rating, Pigweed, Palmer",[4]; [31],0
same,"Plant response rating, Pigweed, Palmer",[4]; [32],0
same,"Plant response rating, Goosegrass",[5]; [29],0
same,"Plant response rating, Goosegrass",[5]; [30],0
same,"Plant response rating, Ragweed",[6]; [31],0
same,"Plant response rating, Ragweed",[6]; [32],0
same,"Plant response rating, Kochia",[7]; [29],0
same,"Plant response rating, Kochia",[7]; [30],0
same,"Plant response rating, Goosegrass",[8]; [31],0
same,"Plant response rating, Goosegrass",[8]; [32],0
same,"Plant response rating, Ducksalad",[9],0
same,"Plant response rating, Ryegrass, Italian",[10]; [31],0
same,"Plant response rating, Ryegrass, Italian",[10]; [32],0
same,"Plant response rating, Ryegrass, Italian",[11]; [29],0
same,"Plant response rating, Ryegrass, Italian",[11]; [30],0
same,"Plant response rating, Horseweed",[12]; [31],0
same,"Plant response rating, Horseweed",[12]; [32],0
same,"Plant response rating, Kochia",[13]; [31],0
same,"Plant response rating, Kochia",[13]; [32],10
same,"Plant response rating, Pigweed, Palmer",[14]; [29],0
same,"Plant response rating, Pigweed, Palmer",[14]; [30],0
same,"Plant response rating, Wheat",[15]; [29],0
same,"Plant response rating, Wheat",[15]; [30],0
same,"Plant response rating, Corn",[16]; [31],0
same,"Plant response rating, Corn",[16]; [32],0
same,"Plant response rating, Sedge, Umbrella",[17],0
same,"Plant response rating, Wheat",[18]; [31],0
same,"Plant response rating, Wheat",[18]; [32],0
same,"Plant response rating, Galium",[19]; [31],30
same,"Plant response rating, Galium",[19]; [32],0
same,"Plant response rating, Blackgrass",[20]; [31],0
same,"Plant response rating, Blackgrass",[20]; [32],0
same,"Plant response rating, Blackgrass",[21]; [29],0
same,"Plant response rating, Blackgrass",[21]; [30],0
same,"Plant response rating, Corn",[22]; [29],0
same,"Plant response rating, Corn",[22]; [30],0
same,"Plant response rating, Soybean",[23]; [29],0
same,"Plant response rating, Soybean",[23]; [30],40
same,"Plant response rating, Foxtail, Giant",[24]; [29],0
same,"Plant response rating, Foxtail, Giant",[24]; [30],0
same,"Plant response rating, Barnyardgrass",[25],0
same,"Plant response rating, Soybean",[26]; [31],0
same,"Plant response rating, Soybean",[26]; [32],20
same,"Plant response rating, Foxtail, Giant",[27]; [31],0
same,"Plant response rating, Foxtail, Giant",[27]; [32],0
same,"Plant response rating, Oat, Wild",[28]; [29],0
same,"Plant response rating, Oat, Wild",[28]; [30],0
Cc1ccc(-n2cnc(C(C)C)n2)cc1C(=O)N1C[C@H](C)Oc2c(C)cccc21 [Compound 99],"Plant response rating, Ragweed",[1]; [29],40
same,"Plant response rating, Ragweed",[1]; [30],80
same,"Oat, Wild plant response rating",[2]; [33],70
same,"Plant response rating, Oat, Wild",[2]; [34],90
same,"Plant response rating, Rice",[3],10
same,"Pigweed, Palmer plant response rating",[4]; [33],90
same,"Plant response rating, Pigweed, Palmer",[4]; [34],100
same,"Plant response rating, Goosegrass",[5]; [29],100
same,"Plant response rating, Goosegrass",[5]; [30],100
same,Ragweed plant response rating,[6]; [33],40
same,"Plant response rating, Ragweed",[6]; [34],90
same,"Plant response rating, Kochia",[7]; [29],100
same,"Plant response rating, Kochia",[7]; [30],100
same,Goosegrass plant response rating,[8]; [33],90
same,"Plant response rating, Goosegrass",[8]; [34],100
same,"Plant response rating, Ducksalad",[9],40
same,"Ryegrass, Italian plant response rating",[10]; [33],50
same,"Plant response rating, Ryegrass, Italian",[10]; [34],100
same,"Plant response rating, Ryegrass, Italian",[11]; [29],90
same,"Plant response rating, Ryegrass, Italian",[11]; [30],100
same,Horseweed plant response rating,[12]; [33],70
same,"Plant response rating, Horseweed",[12]; [34],80
same,Kochia plant response rating,[13]; [33],80
same,"Plant response rating, Kochia",[13]; [34],90
same,"Plant response rating, Pigweed, Palmer",[14]; [29],100
same,"Plant response rating, Pigweed, Palmer",[14]; [30],100
same,"Plant response rating, Wheat",[15]; [29],30
same,"Plant response rating, Wheat",[15]; [30],80
same,Corn plant response rating,[16]; [33],70
same,"Plant response rating, Corn",[16]; [34],90
same,"Plant response rating, Sedge, Umbrella",[17],95
same,Wheat plant response rating,[18]; [33],80
same,"Plant response rating, Wheat",[18]; [34],90
same,Galium plant response rating,[19]; [33],100
same,"Plant response rating, Galium",[19]; [34],100
same,Blackgrass plant response rating,[20]; [33],90
same,"Plant response rating, Blackgrass",[20]; [34],90
same,"Plant response rating, Blackgrass",[21]; [29],80
same,"Plant response rating, Blackgrass",[21]; [30],90
same,"Plant response rating, Corn",[22]; [29],10
same,"Plant response rating, Corn",[22]; [30],50
same,"Plant response rating, Soybean",[23]; [29],80
same,"Plant response rating, Soybean",[23]; [30],100
same,"Plant response rating, Foxtail, Giant",[24]; [29],100
same,"Plant response rating, Foxtail, Giant",[24]; [30],100
same,"Plant response rating, Barnyardgrass",[25],35
same,Soybean plant response rating,[26]; [33],100
same,"Plant response rating, Soybean",[26]; [34],100
same,"Foxtail, Giant plant response rating",[27]; [33],90
same,"Plant response rating, Foxtail, Giant",[27]; [34],90
same,"Plant response rating, Oat, Wild",[28]; [29],70
same,"Plant response rating, Oat, Wild",[28]; [30],90

# Source: US20260262643A1, “HERBICIDAL BENZOXAZINES” (FMC CORPORATION, priority 2022, published 2026)
